Experimental data from patent publication US8637252B2, “Methods and compositions for determining altered susceptibility of HIV-1 to anti-HIV drugs” (Monogram Biosciences, Inc., priority 2011, dated 2014).

Legend:
Assay type in all cases: cell-based
[1] = test system: HIV-1 NL4-3 site-directed reverse transcriptase mutants; experiment: phenotypic drug resistance test, site-directed reverse transcriptase mutants in NL4-3 background (POL segment assay)
Experimental: Further, a site directed double mutant T3691/K103N was generated using conventional techniques and tested for resistance to an NNRTI using the methods described above.
To assess the effects of mutations at positions 348, 369, and 399, a series of site-directed mutants were constructed in an wild-type (NL4-3) background. The NNRTI susceptibility phenotypes of these mutants were then determined using the POL segment assay according to Example 2.
In particular, site-directed mutants were constructed in an NL4-3 background comprising N348I, T369I, E399D, or the combination of N3481 and T369I.
Next, a series of site-directed mutants were constructed to assess the effects of combinations of N3481, T369I, and E399D with previously recognized NNRTI resistance mutations. In particular, mutants comprising N348I, T369I, and E399D were made in combination with G190S, with K103N, and with the combination of K103R and V179D. The effects of these combinations on DLV, EFV, and NVP susceptibility were tested using the POL segment assay according to the method describe in Example 2. The results from these experiments are presented as FIG. 10.
To assess the specific effects of mutations at positions 348, 369, and 399, a series of site-directed mutants were constructed in an wild-type (NL4-3) background. The AZT susceptibility phenotype of these mutants were then determined with a POL segment assay according to Example 2.
In particular, site-directed mutants were constructed in an NL4-3 background comprising N348I, T3691, E399D, or the combination of N348I and T3691. The FC in AZT susceptibility for each mutant is shown as FIG. 13.

[2] = test system: HIV-1 patient-derived test vectors with site-directed reverse transcriptase mutations; experiment: phenotypic drug resistance test, site-directed reverse transcriptase mutants in patient backgrounds
Experimental: In addition, using conventional technique, the T369I mutation was introduced into a resistance test vector comprising PR-RT segment derived from patient sample 62, which comprises mutations A62V, Q102K, K103N, K122E, D123N, C162S, D177E, 1178L, M184V, T200A, Q207E, T215Y, P243S, V245Q, A272P and R277K in reverse transcriptase. Among these mutations, K103N correlates with resistance to a number of NNRTIs, including NVP. This patient sample was tested for resistance to an NNRTI using the methods described above.
To further analyze the effects of N348I, T369I, and E399D on NNRTI resistance, an additional series of site directed mutants was constructed in non-wild-type backgrounds. In particular, site-directed mutants comprising the N348I, T369I, or E399D mutation were constructed in POL-containing test vectors obtained from three different patient samples. Results from these experiments are presented as FIG. 11.
To further analyze the effects of N348I, T369I, and E399D on AZT resistance, an additional series of site directed mutants was constructed in non-wild-type backgrounds. In particular, site-directed mutants comprising the N3481, T369I, or E399D mutation were constructed in POL-containing test vectors obtained from two different patient samples.

[3] = test system: HIV-1 (patient-derived RHIN segment); experiment: phenotypic drug resistance test, resistance test vectors with patient-derived RHIN segment, luciferase, 293 cells
Excerpt: Patient-derived segment(s) corresponding to the entire pol gene, encoding HIV protease, reverse transcriptase (including RNAse H), and integrase (hereinafter “POL”), the portion of pol encoding amino acids 1-305 of reverse transcriptase (hereinafter “PR-RT”), the portion of pol encoding amino acids 319-440 of reverse transcriptase (including RNAse H), and integrase (hereinafter “RHIN”), were amplified by the reverse transcription-polymerase chain reaction method (RT-PCR) using viral RNA isolated from viral particles present in the plasma or serum of HIV-infected individuals as described below. The portion of pol encoding protease, amino acids 1-531 of reverse transcriptase (including RNase H) (hereinafter “PRRT-RH”), or the portion of pol encoding protease, reverse transcriptase (including RNAse H) and integrase (hereinafter “PRRT-RHIN”), were assembled from amplicons described above by standard recombinant DNA techniques involving a KpnI restriction site at amino acid 400 or a Pin A1 site at amino acid 315.
Virus was pelleted by centrifugation at 20,400×g for 60 min from plasma (typically, 1 ml) prepared from blood samples collected in evacuated tubes containing either EDTA, acid-citrate dextrose, or heparin as an anticoagulant. Virus particles were disrupted by resuspending the pellets in 200 [1.1 of lysis buffer (4 M guanidine thiocyanate, 0.1 M Tris HCl (pH 8.0), 0.5% sodium lauryl sarcosine, 1% dithiothreitol). RNA was extracted from viral lysates by using oligo(dT) linked to magnetic beads (Dynal, Oslo, Norway). Reverse transcription was performed with Superscript III (Invitrogen) at 50 degrees for 1 hour using primer 1.
From the resultant cDNA either POL or RHIN sequences were amplified using the Advantage High Fidelity PCR kit (BD Biosciences; Clontech). POL amplification products are made using forward Primer 3 containing an Apal site and reverse Primer 4 containing a Xho 1 site. RHIN amplification products are made using forward Primer 2 containing a P1NA1 site and reverse Primer 4 containing a Xho 1 site.
A retroviral vector designed to measure antiretroviral drug susceptibility was constructed by using an infectious molecular clone of HIV-1. The vector, referred to herein as an indicator gene viral vector (IGVV), is replication defective and contains a luciferase expression cassette inserted within a deleted region of the envelope (env) gene. The IGVV is described in U.S. Pat. No. 5,837,464 (International Publication Number WO 97/27319) which is hereby incorporated by reference in its entirety. This retroviral vector was further modified to allow insertion of either the entire pol gene (POL) or the portion of poi encoding amino acids 319-440 of reverse transcriptase, the RNase H portion of reverse transcriptase, and integrase (REIN) by engineering an Xho l restriction enzyme recognition site into vif. Prior to doing this, an Xho 1 site in nef was deleted. Resistance Test vectors (RTVs) were constructed by incorporating amplified POL or RHIN into the IGVV by using Apal and Xhol or PinAI and Xho 1 restriction sites respectively. RTVs were prepared as libraries (pools) in order to capture and preserve the pol or RHIN sequence heterogeneity of the virus in the patient. POL amplification products were digested with Apal and Xhol, purified by agarose gel electrophoresis, and ligated to ApaI- and Xhol-digested IGVV DNA. RHIN amplification products were digested with PinAI and Xho/, purified by agarose gel electrophoresis, and ligated to PinAI and Xhol-digested IGVV DNA. Ligation reactions were used to transform competent Escherichia coli (Invitrogen, Carlsbad, Calif.). An aliquot of each transformation was plated onto agar, and colony counts were used to estimate the number of patient-derived segments represented in each RTV library. RTV libraries that comprised less than 50 members are not considered representative of the patient virus. […]

[4] = test system: HIV-1 NL4-3 and IIIB site-directed integrase mutants; experiment: phenotypic INSTI susceptibility test, site-directed integrase mutants in NL4-3 or IIIB background (RHIN segment assay)
Experimental: To assess the effects of mutations at positions 97 and 156 of integrase, two site-directed mutants (T97A and K156N) were constructed in two different wild-type (NL4-3 and IIIB) genetic backgrounds. The INSTI susceptibility phenotypes of these mutants to diketo acid 1, diketo acid 2, and L-870,810 were then determined using the RHIN segment assay according to Example 2.
In particular, site-directed mutants were constructed in an NL4-3 or IIIB background comprising either T97A or K156N. The FC in susceptibility to diketo acid 1, diketo acid 2, and L-870,810 for each mutant is shown as FIG. 18.
Next, a series of site-directed mutants were constructed to assess the effects of combinations of T97A and K156N with previously recognized INSTI resistance mutations. In particular, mutants comprising T97A, K156N, and the combination of T97A and K156N were made in combination with three constellations of previously recognized INSI mutations (V721, F121Y, and T125K; N155S; and T66I and M1541). Each of these combinations was made in a IIIB background. The effects of these combinations on diketo acid 1, diketo acid 2, and L-870,810 susceptibility were tested with the RHIN segment assay according to the method described in Example 2.

Compound	FC in susceptibility ([1]; site-directed mutant E399D in NL4-3 background)	FC in susceptibility ([1]; site-directed mutant N348I and T369I combination in NL4-3 background)	FC in susceptibility ([1]; site-directed mutant N348I in NL4-3 background)	fold change for IC50 ([1]; site-directed mutant T369I in NL4-3 background) [fold]	change in resistance on addition of mutation ([2]; E399D mutation, patient 45 or patient 50 background)	change in resistance on addition of mutation ([2]; N348I and T369I mutations, all tested patient backgrounds (patients 45, 50))	FC in susceptibility relative to wild-type (NL4-3) ([3]; nine of 128 patient samples, containing integrase K156N)	FC in susceptibility relative to wild-type (NL4-3) ([3]; three of 128 patient samples, containing integrase T97A)	effect of mutation on resistance ([4]; T97A alone or with V72I/F121Y/T125K, N155S, or T66I/M154I, IIIB background)	effect of mutation on susceptibility ([4]; integrase K156N in NL4-3 and IIIB backgrounds)	effect of mutation on susceptibility ([4]; integrase T97A in NL4-3 and IIIB backgrounds)
Cc1cn([C@H]2C[C@H](N=[N+]=[N-])[C@@H](CO)O2)c(=O)[nH]c1=O [AZT]	< 2	> 2	> 2	> 2	did not significantly increase	increased resistance	–	–	–	–	–
O=C(NCc1ccc(F)cc1)c1nc(N2CCCCS2(=O)=O)c2cccnc2c1O [L-870,810]	–	–	–	–	–	–	< 0.5	increased FC	increased resistance	increased susceptibility	reduced susceptibility
